Assay results published in PubChem BioAssay AID1963873 (Molecular Pharmacology Branch, DTP, NCI, 2024).
pIC50: −log10 of the molar value.

Tested on: 276233-004-R-J1-PDC KRAS spheroids with HUVEC/MSC, viability
Assay: Anticancer human tumor 276233-004-R-J1-PDC patient-derived colon adenocarcinoma cell line growth inhibition [KRAS2]
Details: for pIC50: curve of first compound; for viability, T/C: stronger effect = lower value
Summary of the method: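 Combination screen of spheroid viability in tumor-cell co-cultures with endothelial (HUVEC) and mesenchymal stem cell stroma. Each agent was tested in half-log dilutions, topping at clinical Cmax or at 10 microM without a known Cmax.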

[1] = second compound 0.1 µM, first compound 0.01 µM
[2] = second compound 0.1 µM, first compound 0.0316 µM
[3] = second compound 0.1 µM, first compound 0.1 µM
[4] = second compound 0.1 µM, first compound 0.316 µM
[5] = second compound 0.1 µM, first compound 1 µM
[6] = second compound 0.1 µM, first compound 3.16 µM
[7] = second compound 0.316 µM, first compound 0.01 µM
[8] = second compound 0.316 µM, first compound 0.0316 µM
[9] = second compound 0.316 µM, first compound 0.1 µM
[10] = second compound 0.316 µM, first compound 0.316 µM
[11] = second compound 0.316 µM, first compound 1 µM
[12] = second compound 0.316 µM, first compound 3.16 µM
[13] = second compound 1 µM, first compound 0.01 µM
[14] = second compound 1 µM, first compound 0.0316 µM
[15] = second compound 1 µM, first compound 0.1 µM
[16] = second compound 1 µM, first compound 0.316 µM
[17] = second compound 1 µM, first compound 1 µM
[18] = second compound 1 µM, first compound 3.16 µM
[19] = second compound 3.16 µM, first compound 0.01 µM
[20] = second compound 3.16 µM, first compound 0.0316 µM
[21] = second compound 3.16 µM, first compound 0.1 µM
[22] = second compound 3.16 µM, first compound 0.316 µM
[23] = second compound 3.16 µM, first compound 1 µM
[24] = second compound 3.16 µM, first compound 3.16 µM
[25] = second compound 10 µM, first compound 0.01 µM
[26] = second compound 10 µM, first compound 0.0316 µM
[27] = second compound 10 µM, first compound 0.1 µM
[28] = second compound 10 µM, first compound 0.316 µM
[29] = second compound 10 µM, first compound 1 µM
[30] = second compound 10 µM, first compound 3.16 µM
[31] = second compound 0.1 µM, first compound 0.000316 µM
[32] = second compound 0.1 µM, first compound 0.001 µM
[33] = second compound 0.1 µM, first compound 0.00316 µM
[34] = second compound 0.316 µM, first compound 0.000316 µM
[35] = second compound 0.316 µM, first compound 0.001 µM
[36] = second compound 0.316 µM, first compound 0.00316 µM
[37] = second compound 1 µM, first compound 0.000316 µM
[38] = second compound 1 µM, first compound 0.001 µM
[39] = second compound 1 µM, first compound 0.00316 µM
[40] = second compound 3.16 µM, first compound 0.000316 µM
[41] = second compound 3.16 µM, first compound 0.001 µM
[42] = second compound 3.16 µM, first compound 0.00316 µM
[43] = second compound 10 µM, first compound 0.000316 µM
[44] = second compound 10 µM, first compound 0.001 µM
[45] = second compound 10 µM, first compound 0.00316 µM
[46] = second compound 0.1 µM, first compound 10 µM
[47] = second compound 0.316 µM, first compound 10 µM
[48] = second compound 1 µM, first compound 10 µM
[49] = second compound 3.16 µM, first compound 10 µM
[50] = second compound 10 µM, first compound 10 µM
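Further: cells exposed to agents for seven days before viability read.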
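Wherever viability, T/C is given: 100% = DMSO vehicle control wells and lower values mean fewer viable cells.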

CC(=O)OC12COC1CC(O)C1(C)C(=O)C(O)C3=C(C)C(OC(=O)C(O)C(NC(=O)OC(C)(C)C)c4ccccc4)CC(O)(C(OC(=O)c4ccccc4)C21)C3(C)C (stereo not given) + COc1cc2nc(C)nc(NC(C)c3cc(N)cc(C(F)(F)F)c3)c2cc1OC1CCOC1
pIC50 (second compound 0.1 µM): < 5.50
pIC50 (second compound 0.316 µM): < 5.50
pIC50 (second compound 1 µM): < 5.50
pIC50 (second compound 3.16 µM): < 5.50
pIC50 (second compound 10 µM): < 5.50
viability, T/C [1]: 86.8%
viability, T/C [2]: 75.9%
viability, T/C [3]: 83.1%
viability, T/C [4]: 91.8%
viability, T/C [5]: 86.1%
viability, T/C [6]: 94%
viability, T/C [7]: 75.1%
viability, T/C [8]: 80.7%
viability, T/C [9]: 72%
viability, T/C [10]: 65.4%
viability, T/C [11]: 78.3%
viability, T/C [12]: 71.7%
viability, T/C [13]: 73.4%
viability, T/C [14]: 73.3%
viability, T/C [15]: 82%
viability, T/C [16]: 76.4%
viability, T/C [17]: 92.2%
viability, T/C [18]: 78.5%
viability, T/C [19]: 78.3%
viability, T/C [20]: 70.5%
viability, T/C [21]: 58.9%
viability, T/C [22]: 61.2%
viability, T/C [23]: 69.3%
viability, T/C [24]: 66.3%
viability, T/C [25]: 64.3%
viability, T/C [26]: 61.2%
viability, T/C [27]: 73.3%
viability, T/C [28]: 72.7%
viability, T/C [29]: 78.8%
viability, T/C [30]: 77.8%

CN(C)C/C=C/C(=O)Nc1cc2c(Nc3ccc(F)c(Cl)c3)ncnc2cc1O[C@H]1CCOC1 + CNCc1ccccc1-c1csc(C(C)Nc2nc(C)nc3cc(OC)c(OC)cc23)c1
pIC50 (second compound 0.1 µM): < 7.00
pIC50 (second compound 0.316 µM): < 7.00
pIC50 (second compound 1 µM): < 7.00
pIC50 (second compound 3.16 µM): > 9.50
pIC50 (second compound 10 µM): > 9.50
viability, T/C [31]: 95.8%
viability, T/C [32]: 106%
viability, T/C [33]: 89%
viability, T/C [1]: 95.2%
viability, T/C [2]: 86.8%
viability, T/C [3]: 74.7%
viability, T/C [34]: 95.9%
viability, T/C [35]: 82.5%
viability, T/C [36]: 83.1%
viability, T/C [7]: 73%
viability, T/C [8]: 67.9%
viability, T/C [9]: 69.8%
viability, T/C [37]: 81.4%
viability, T/C [38]: 73.5%
viability, T/C [39]: 77.3%
viability, T/C [13]: 81.2%
viability, T/C [14]: 63%
viability, T/C [15]: 79.2%
viability, T/C [40]: 4.26%
viability, T/C [41]: 2.41%
viability, T/C [42]: 3.56%
viability, T/C [19]: 3.46%
viability, T/C [20]: 8.28%
viability, T/C [21]: 1.18%
viability, T/C [43]: 5.68%
viability, T/C [44]: 0.19%
viability, T/C [45]: 0.31%
viability, T/C [25]: 0.19%
viability, T/C [26]: 0.88%
viability, T/C [27]: 0.67%

COC(=O)c1ccc2c(C(=Nc3ccc(N(C)C(=O)CN4CCN(C)CC4)cc3)c3ccccc3)c(O)[nH]c2c1 + CNCc1ccccc1-c1csc(C(C)Nc2nc(C)nc3cc(OC)c(OC)cc23)c1
pIC50 (second compound 0.1 µM): < 5.00
pIC50 (second compound 0.316 µM): < 5.00
pIC50 (second compound 1 µM): 5.94
pIC50 (second compound 3.16 µM): > 7.50
pIC50 (second compound 10 µM): > 7.50
viability, T/C [2]: 95.9%
viability, T/C [3]: 80.5%
viability, T/C [4]: 87.7%
viability, T/C [5]: 70.1%
viability, T/C [6]: 87.7%
viability, T/C [46]: 70.1%
viability, T/C [8]: 95.5%
viability, T/C [9]: 91.7%
viability, T/C [10]: 71.4%
viability, T/C [11]: 74.5%
viability, T/C [12]: 70.4%
viability, T/C [47]: 74.5%
viability, T/C [14]: 59.4%
viability, T/C [15]: 58.5%
viability, T/C [16]: 56.5%
viability, T/C [17]: 54.6%
viability, T/C [18]: 12.1%
viability, T/C [48]: 14.6%
viability, T/C [20]: 2.33%
viability, T/C [21]: 4.5%
viability, T/C [22]: 7.73%
viability, T/C [23]: 3.3%
viability, T/C [24]: 9.99%
viability, T/C [49]: 5.4%
viability, T/C [26]: 3.64%
viability, T/C [27]: 3.36%
viability, T/C [28]: 4.73%
viability, T/C [29]: 6.01%
viability, T/C [30]: 1.8%
viability, T/C [50]: 0.53%

CC(=O)Nc1cccc(-n2c(=O)n(C3CC3)c(=O)c3c(Nc4ccc(I)cc4F)n(C)c(=O)c(C)c32)c1 + C=CC(=O)N1CCN(c2nc(=O)n(-c3c(C)ccnc3C(C)C)c3nc(-c4c(O)cccc4F)c(F)cc23)C(C)C1
pIC50 (second compound 0.1 µM): 8.19
pIC50 (second compound 0.316 µM): 8.02
pIC50 (second compound 1 µM): 8.03
pIC50 (second compound 3.16 µM): 8.19
pIC50 (second compound 10 µM): 8.61
viability, T/C (second compound 0.1 µM, first compound 0.0001 µM): 89.9%
viability, T/C [31]: 97.5%
viability, T/C [32]: 85.7%
viability, T/C [33]: 58.9%
viability, T/C [1]: 45.4%
viability, T/C [2]: 21.3%
viability, T/C (second compound 0.316 µM, first compound 0.0001 µM): 87.1%
viability, T/C [34]: 84.9%
viability, T/C [35]: 76.9%
viability, T/C [36]: 74%
viability, T/C [7]: 47.9%
viability, T/C [8]: 18.6%
viability, T/C (second compound 1 µM, first compound 0.0001 µM): 102%
viability, T/C [37]: 85.5%
viability, T/C [38]: 80%
viability, T/C [39]: 71.9%
viability, T/C [13]: 49.5%
viability, T/C [14]: 19.4%
viability, T/C (second compound 3.16 µM, first compound 0.0001 µM): 75.2%
viability, T/C [40]: 96.3%
viability, T/C [41]: 65.8%
viability, T/C [42]: 59.5%
viability, T/C [19]: 45.9%
viability, T/C [20]: 24.2%
viability, T/C (second compound 10 µM, first compound 0.0001 µM): 74.2%
viability, T/C [43]: 73%
viability, T/C [44]: 57.6%
viability, T/C [45]: 45.4%
viability, T/C [25]: 36.8%
viability, T/C [26]: 21.3%

CC1OCC2(CCN(c3cnc(Sc4ccnc(N)c4Cl)c(N)n3)CC2)C1N (stereo not given) + COc1cc2nc(C)nc(NC(C)c3cc(N)cc(C(F)(F)F)c3)c2cc1OC1CCOC1
pIC50 (second compound 0.1 µM): < 5.00
pIC50 (second compound 0.316 µM): < 5.00
pIC50 (second compound 1 µM): < 5.00
pIC50 (second compound 3.16 µM): 5.28
pIC50 (second compound 10 µM): 7.39
viability, T/C [2]: 93.6%
viability, T/C [3]: 100%
viability, T/C [4]: 70.5%
viability, T/C [5]: 78%
viability, T/C [6]: 62.9%
viability, T/C [46]: 51.7%
viability, T/C [8]: 109%
viability, T/C [9]: 79%
viability, T/C [10]: 78.5%
viability, T/C [11]: 62.7%
viability, T/C [12]: 61.8%
viability, T/C [47]: 57.2%
viability, T/C [14]: 91.5%
viability, T/C [15]: 86.9%
viability, T/C [16]: 81.4%
viability, T/C [17]: 80.4%
viability, T/C [18]: 55.1%
viability, T/C [48]: 50.8%
viability, T/C [20]: 85.8%
viability, T/C [21]: 77.8%
viability, T/C [22]: 71.8%
viability, T/C [23]: 70%
viability, T/C [24]: 54%
viability, T/C [49]: 42.7%
viability, T/C [26]: 52.4%
viability, T/C [27]: 44.1%
viability, T/C [28]: 34.4%
viability, T/C [29]: 33.9%
viability, T/C [30]: 24.2%
viability, T/C [50]: 18.7%

COc1cc2nccc(Oc3ccc(NC(=O)C4(C(=O)Nc5ccc(F)cc5)CC4)cc3)c2cc1OC + COc1cc2nc(C)nc(NC(C)c3cc(N)cc(C(F)(F)F)c3)c2cc1OC1CCOC1
pIC50 (second compound 0.1 µM): < 5.00
pIC50 (second compound 0.316 µM): < 5.00
pIC50 (second compound 1 µM): < 5.00
pIC50 (second compound 3.16 µM): < 5.00
pIC50 (second compound 10 µM): > 7.50
viability, T/C [2]: 74.9%
viability, T/C [3]: 98.7%
viability, T/C [4]: 87.2%
viability, T/C [5]: 92%
viability, T/C [6]: 78.9%
viability, T/C [46]: 98.8%
viability, T/C [8]: 85.9%
viability, T/C [9]: 80.8%
viability, T/C [10]: 111%
viability, T/C [11]: 99.7%
viability, T/C [12]: 79.3%
viability, T/C [47]: 101%
viability, T/C [14]: 84.7%
viability, T/C [15]: 85.7%
viability, T/C [16]: 88.6%
viability, T/C [17]: 71.4%
viability, T/C [18]: 60.2%
viability, T/C [48]: 110%
viability, T/C [20]: 75.8%
viability, T/C [21]: 81.1%
viability, T/C [22]: 103%
viability, T/C [23]: 60.8%
viability, T/C [24]: 44.2%
viability, T/C [49]: 98.3%
viability, T/C [26]: 22.5%
viability, T/C [27]: 17.7%
viability, T/C [28]: 19.5%
viability, T/C [29]: 11.5%
viability, T/C [30]: 1.3%
viability, T/C [50]: 26.8%
